Four compounds from ChEMBL document CHEMBL1681692, “Identification of new GATA4-small molecule inhibitors by structure-based virtual screening” (Bioorg Med Chem, 2011) can be followed below.

Activity calls are given as the source filed them. No cut-off for these calls is given here.

Data set [1] relates to HEK293. As to the kind of experiment: Cytotoxicity in human HEK293 cells assessed as effect on cell proliferation upto 150 uM. In kind it is cell-based.
Data set [2] deals with Transcription factor GATA-4 (Mus musculus) (UniProt Q08369). As to the kind of experiment: Inhibition of GATA4 in mouse C2C12 cells assessed as myoblast differentiation to myotubes at 100 uM after 48 hrs by immunofluorescence assay in presence of 20 % FBS relative to control. It counts as cell-based.
For data set [3] the target is unchanged. Briefly: Inhibition of GATA4 in mouse C2C12 cells assessed as myoblast differentiation to myotubes at 100 uM after 48 hrs by immunofluorescence assay in presence of 0.5% FBS relative to control. In kind it is cell-based.
Data set [4] deals with HeLa. As to the kind of experiment: Drug uptake in human HeLa cells after 24 hrs. It counts as ADME, cell-based.
The test system of data set [5] is C2C12. Briefly: Cytotoxicity in mouse C2C12 cells assessed as effect on cell proliferation upto 150 uM. It counts as cell-based.
Data set [6] has as its target Transcription factor GATA-4 (Homo sapiens) (UniProt P43694). As to the kind of experiment: Inhibition of GATA4-DNA interaction in HEK293 nuclear extract at 100 uM after 15 mins by EMSA assay. In kind it is cell-free.
The target is the same in data set [7]. Briefly: Inhibition of GATA4- mediated BNP promoter activation in HeLa cells at 100 uM after 24 hrs by luciferase reporter gene assay. It counts as cell-based. (In general: In a reporter assay the amount or activity of a reporter protein is the signal.)
In data set [8] the target is T1, Nuclear factor of activated T-cells, cytoplasmic 1 (Homo sapiens) (UniProt O95644).
T1 sequence (whole entry): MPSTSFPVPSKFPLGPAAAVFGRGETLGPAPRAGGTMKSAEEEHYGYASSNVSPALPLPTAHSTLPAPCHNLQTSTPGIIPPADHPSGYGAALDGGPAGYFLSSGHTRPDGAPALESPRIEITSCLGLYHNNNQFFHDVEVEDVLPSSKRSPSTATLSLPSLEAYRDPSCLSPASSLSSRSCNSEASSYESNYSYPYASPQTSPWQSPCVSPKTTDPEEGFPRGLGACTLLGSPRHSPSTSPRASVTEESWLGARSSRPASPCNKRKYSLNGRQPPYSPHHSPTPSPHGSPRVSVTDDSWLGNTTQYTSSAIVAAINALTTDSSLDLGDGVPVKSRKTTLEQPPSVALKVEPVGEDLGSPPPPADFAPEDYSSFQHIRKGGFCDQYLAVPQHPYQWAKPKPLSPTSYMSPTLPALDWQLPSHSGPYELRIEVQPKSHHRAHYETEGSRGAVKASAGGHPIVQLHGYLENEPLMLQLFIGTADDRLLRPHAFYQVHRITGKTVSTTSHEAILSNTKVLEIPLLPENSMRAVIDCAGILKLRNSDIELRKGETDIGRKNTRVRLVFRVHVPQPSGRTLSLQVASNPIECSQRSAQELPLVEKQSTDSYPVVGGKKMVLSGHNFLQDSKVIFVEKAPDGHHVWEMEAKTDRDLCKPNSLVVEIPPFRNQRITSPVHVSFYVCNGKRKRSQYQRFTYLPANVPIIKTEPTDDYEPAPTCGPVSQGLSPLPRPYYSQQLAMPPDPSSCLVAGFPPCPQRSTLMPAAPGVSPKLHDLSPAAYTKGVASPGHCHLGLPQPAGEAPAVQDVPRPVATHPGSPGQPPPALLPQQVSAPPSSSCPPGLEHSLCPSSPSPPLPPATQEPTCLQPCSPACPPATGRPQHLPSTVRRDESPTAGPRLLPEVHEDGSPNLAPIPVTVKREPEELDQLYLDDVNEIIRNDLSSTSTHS
As to the kind of experiment: Effect on NFATc1 in HEK293 nuclear extract at 50 uM after 15 mins by EMSA assay. Background: Mobility shift assays separate free from complexed probe on a gel.

Data set [9] concerns HEK293. Briefly: Cytotoxicity in human HEK293 cells assessed as cell death upto 150 uM. It counts as cell-based.
The target in data set [10] is Transcription factor GATA-4 (Homo sapiens) (UniProt P43694). As to the kind of experiment: Inhibition of GATA4-DNA interaction in HEK293 nuclear extract at 50 uM after 15 mins by EMSA assay. In kind it is cell-free.
For data set [11], the system named is HeLa. As to the kind of experiment: Cytotoxicity in human HeLa cells assessed as effect on cell proliferation upto 150 uM. In kind it is cell-based.
For data set [12], the target named is Transcription factor GATA-4 (Mus musculus) (UniProt Q08369). Briefly: Inhibition of GATA4- DNA interaction in mouse C2C12 cells at 100 uM after 24 hrs by EMSA assay. It counts as cell-based.
Data set [13] in a line: Lipophilicity, log P of compound. In kind it is physicochemical. The following applies: octanol/water.
The target of data set [14] is T2, T-box transcription factor TBX5 (Homo sapiens) (UniProt Q99593).
T2 sequence (whole entry): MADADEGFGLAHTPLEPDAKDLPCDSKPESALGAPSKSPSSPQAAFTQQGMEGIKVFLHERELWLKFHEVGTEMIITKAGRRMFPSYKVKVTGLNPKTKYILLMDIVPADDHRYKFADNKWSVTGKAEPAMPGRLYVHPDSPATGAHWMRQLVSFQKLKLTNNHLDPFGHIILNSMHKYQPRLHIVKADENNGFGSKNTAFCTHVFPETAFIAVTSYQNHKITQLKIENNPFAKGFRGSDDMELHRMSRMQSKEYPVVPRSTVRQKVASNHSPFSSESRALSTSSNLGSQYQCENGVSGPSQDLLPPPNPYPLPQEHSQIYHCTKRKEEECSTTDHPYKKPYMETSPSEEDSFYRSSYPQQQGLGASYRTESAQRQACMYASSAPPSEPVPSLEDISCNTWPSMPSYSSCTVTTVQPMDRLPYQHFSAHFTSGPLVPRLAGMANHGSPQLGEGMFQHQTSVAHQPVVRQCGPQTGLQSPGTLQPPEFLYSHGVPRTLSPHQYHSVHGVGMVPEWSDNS
Briefly: Effect on Tbx5 in HEK293 nuclear extract at 50 uM after 15 mins by EMSA assay.

Data set [15] concerns HeLa. As to the kind of experiment: Cytotoxicity in human HeLa cells assessed as cell death upto 150 uM. It counts as cell-based.
Data set [16] concerns the target Transcription factor GATA-4 (Homo sapiens) (UniProt P43694). Briefly: Inhibition of GATA4-DNA interaction in HEK293 nuclear extract at 50 to 150 uM after 15 mins by EMSA assay.
Data set [17] has as its system C2C12. Briefly: Cytotoxicity in mouse C2C12 cells assessed as cell death upto 150 uM. In kind it is cell-based.
Data set [18] deals with Transcription factor GATA-4 (Homo sapiens) (UniProt P43694). As to the kind of experiment: Inhibition of GATA4-DNA interaction in HEK293 nuclear extract at 150 uM after 15 mins by EMSA assay. In kind it is cell-free.

Transcription factor GATA-4 (Homo sapiens), sequence (P43694 whole entry): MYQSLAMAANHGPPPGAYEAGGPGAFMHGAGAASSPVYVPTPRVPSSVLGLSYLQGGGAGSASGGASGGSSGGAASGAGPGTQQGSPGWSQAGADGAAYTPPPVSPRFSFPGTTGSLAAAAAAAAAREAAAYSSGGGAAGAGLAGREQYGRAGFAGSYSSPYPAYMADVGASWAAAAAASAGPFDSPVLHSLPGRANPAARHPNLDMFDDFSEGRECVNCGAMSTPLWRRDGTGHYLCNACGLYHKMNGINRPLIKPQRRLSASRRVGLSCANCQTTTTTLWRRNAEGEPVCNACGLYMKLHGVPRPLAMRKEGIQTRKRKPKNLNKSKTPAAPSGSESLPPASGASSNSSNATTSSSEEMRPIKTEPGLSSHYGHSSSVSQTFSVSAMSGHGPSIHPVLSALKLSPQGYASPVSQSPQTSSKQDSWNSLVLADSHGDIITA
Transcription factor GATA-4 (Mus musculus), sequence (Q08369 whole entry): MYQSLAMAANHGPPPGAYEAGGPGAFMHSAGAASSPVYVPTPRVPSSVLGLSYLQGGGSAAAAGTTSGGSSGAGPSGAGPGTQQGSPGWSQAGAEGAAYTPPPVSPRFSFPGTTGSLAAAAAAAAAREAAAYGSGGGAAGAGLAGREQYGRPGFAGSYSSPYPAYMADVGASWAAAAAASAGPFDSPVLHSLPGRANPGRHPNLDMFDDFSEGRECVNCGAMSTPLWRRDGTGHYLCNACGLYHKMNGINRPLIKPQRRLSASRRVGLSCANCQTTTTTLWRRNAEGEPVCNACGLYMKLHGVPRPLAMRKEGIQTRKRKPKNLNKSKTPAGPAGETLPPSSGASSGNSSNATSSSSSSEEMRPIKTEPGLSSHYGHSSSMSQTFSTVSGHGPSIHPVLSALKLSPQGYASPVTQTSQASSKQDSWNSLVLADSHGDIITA

For the compound `NC(=O)c1ncn([C@@H]2O[C@H](COP(=O)(O)O)[C@@H](O)[C@H]2O)n1` [RIBAVIRIN MONOPHOSPHATE], the Activity entry in the data set with HEK293 [1], with C2C12 [5], in the data set with HEK293 [9], in the data set with HeLa [11], in the data set on HeLa [15] and with C2C12 [17] was “Non-toxic” in each case. In addition, the inhibition result in [2] and in data set [3] was “inactive” throughout. In addition, in the data set on HeLa [4], the Drug uptake result is listed as “Active”. Besides, the inhibition result in [6], in data set [10] and in [12] was “Active” in each case. In addition, the figures for the inhibition in data set [7], in data set [16] and in data set [18] were 16%, “Dose-dependent effect” and 70%, respectively. In addition, the outcome in data set [8] and in data set [14] was inactive. Further, the logP (usually a log measure of how a compound divides between an organic and an aqueous phase) in data set [13] is less than 0.

For `Cc1cc(C(=O)O)c(C(=O)O)c(O)n1`, the Activity entry in the data set on HEK293 [1], in the data set with C2C12 [5], in the data set on HEK293 [9], in the data set on HeLa [11], in the data set with HeLa [15] and in the data set on C2C12 [17] was “Non-toxic” each time. The inhibition result in [2] and in data set [3] was “inactive” throughout. The Drug uptake entry with HeLa [4] is given as “Active”. The inhibition result in data set [6], in data set [10] and in data set [12] was “Active” throughout. In addition, the values for the inhibition in data set [7], in data set [16] and in data set [18] were 35%, “Dose-dependent effect” and 70%, respectively. For the same compound, the result in data set [8] and in data set [14] was inactive. In [13], this compound came in with a logP of less than 0.

On to `O=C(O)CC(Cc1ccc2c(c1)OCO2)C(=O)O` (stereo unspecified), for which the Activity result in the data set on HEK293 [1], with C2C12 [5], with HEK293 [9], in the data set on HeLa [11], in the data set with HeLa [15] and in the data set on C2C12 [17] was “Non-toxic” each time. Besides, the inhibition entry in [2], in data set [3], in [6] and in data set [12] was “Active” in each case. The Drug uptake result in the data set on HeLa [4] is given as “Active”. Further, the figures for the inhibition in data set [7], in data set [10] and in [16] were 35%, 60% and “Dose-dependent effect”, respectively. Also, the outcome in [8] and in data set [14] was inactive. In data set [13], the logP is less than 0.

`O=C(O)c1cc(C(=O)O)cc(S(=O)(=O)NCCO)c1`: the Activity entry in the data set with HEK293 [1], in the data set with C2C12 [5], in the data set with HEK293 [9], in the data set on HeLa [11], in the data set on HeLa [15] and with C2C12 [17] was “Non-toxic” in each case. In addition, the inhibition result in data set [2], in data set [3], in data set [6], in data set [10] and in [12] was “Active” in each case. Moreover, the Drug uptake result with HeLa [4] is reported as “Not Active”. Moreover, the inhibition – broadly, the percentage by which the read-out fell short of the control – in [7] was “inactive”. Moreover, the outcome in data set [8] and in data set [14] was inactive. In addition, the logP in data set [13] was less than 0. The inhibition entry was “Dose-dependent effect” in [16] and 70% in [18].
